Measured values published in ChEMBL document CHEMBL4765295, “Synthesis, pharmacological profile and 2D-QSAR studies of curcumin-amino acid conjugates as potential drug candidates” (Eur J Med Chem, 2020).
Values joined by “and” are separate entries in the source; they are usually repeats but may differ in a detail not shown here. Identical values can stand only once.

These molecules were tested on Candida albicans (assay: Antifungal activity against Candida albicans incubated for 18 to 24 hrs by CLSI method). Conditions: time 18-24 hrs.
Format: functional

Row | MIC | SMILES
1 | 1 µg/mL and 1.3 µM | COc1cc(/C=C/C(=O)/C=C(O)/C=C/c2ccc(OC(=O)[C@@H](NC(=O)OC(C)(C)C)C(C)C)c(OC)c2)ccc1OC(=O)[C@@H](NC(=O)OC(C)(C)C)C(C)C

These molecules were tested on Streptococcus pyogenes (assay: Antibacterial activity against Streptococcus pyogenes ATCC 19615 incubated for 18 hrs by agar dilution method). Conditions: not given.
Format: functional

Row | MIC | SMILES
2 | 2 µg/mL and 2.61 µM | COc1cc(/C=C/C(=O)/C=C(O)/C=C/c2ccc(OC(=O)[C@@H](NC(=O)OC(C)(C)C)C(C)C)c(OC)c2)ccc1OC(=O)[C@@H](NC(=O)OC(C)(C)C)C(C)C

The molecules below were run on Rattus norvegicus (assay: Anti-inflammatory activity in Wistar rat assessed as inhibition of carrageenan-induced paw edema at 10 mg/kg, ip pretreated for 1 hr followed by carrageenan challenge and measured after 1 hr relative to control (reference value: 0.00 +/-0.02 %)). Conditions: time 2 hrs.
Format: functional

Row | SMILES | inhibition in vivo at 10 mg/kg
3 | COc1cc(/C=C/C(=O)/C=C(O)/C=C/c2ccc(OC(=O)[C@@H](NC(=O)OC(C)(C)C)C(C)C)c(OC)c2)ccc1OC(=O)[C@@H](NC(=O)OC(C)(C)C)C(C)C | 13%

These molecules were tested on Rattus norvegicus (assay: Anti-inflammatory activity in Wistar rat assessed as inhibition of carrageenan-induced paw edema at 10 mg/kg, ip pretreated for 1 hr followed by carrageenan challenge and measured after 24 hr relative to control (reference value: 0.00 +/-0.3 %)). Conditions: time 25 hrs.
Format: functional

Row | SMILES | inhibition in vivo at 10 mg/kg
4 | COc1cc(/C=C/C(=O)/C=C(O)/C=C/c2ccc(OC(=O)[C@@H](NC(=O)OC(C)(C)C)C(C)C)c(OC)c2)ccc1OC(=O)[C@@H](NC(=O)OC(C)(C)C)C(C)C | 30%

What follows are molecules tested on Rattus norvegicus (assay: Antiinflammatory activity in Wistar rat model of carrageenan-induced paw edema assessed as reduction in thickness of paw edema at 10 mg/kg, ip pretreated for 1 hr followed by carrageenan challenge and measured after 3 hrs (reference value: 1.79 +/-0.07 mm)). Conditions: time 4 hrs.
Format: functional

Row | SMILES | Activity
5 | COc1cc(/C=C/C(=O)/C=C(O)/C=C/c2ccc(OC(=O)[C@@H](NC(=O)OC(C)(C)C)C(C)C)c(OC)c2)ccc1OC(=O)[C@@H](NC(=O)OC(C)(C)C)C(C)C | 1.34 mm

These molecules were tested on Splenocyte (assay: Immunomodulatory activity in Swiss albino mouse splenocytes assessed as cell viability at 10 uM by measuring stimulation index incubated for 72 hrs in presence of mitogenic stimulus phytohaemagglutinin by MTT assay (reference value: 1.00 +/- 0.24)). Conditions: not given.
Format: functional

Row | SMILES | Activity_index
6 | COc1cc(/C=C/C(=O)/C=C(O)/C=C/c2ccc(OC(=O)[C@@H](NC(=O)OC(C)(C)C)C(C)C)c(OC)c2)ccc1OC(=O)[C@@H](NC(=O)OC(C)(C)C)C(C)C | 1.84

The molecules below were run on Peritoneal macrophage (assay: Antiinflammatory activity in […] mouse Peritoneal macrophages assessed as reduction in LPS-induced NO production by measuring reduction in stimulation index at 10 uM preincubated for 1 hr followed by LPS stimulation measured after 24 hrs by Griess method (reference value: 27.31 +/- 2.56 uM)). Conditions: time 25 hrs.
Format: functional

Row | SMILES | Activity
7 | COc1cc(/C=C/C(=O)/C=C(O)/C=C/c2ccc(OC(=O)[C@@H](NC(=O)OC(C)(C)C)C(C)C)c(OC)c2)ccc1OC(=O)[C@@H](NC(=O)OC(C)(C)C)C(C)C | 19.29 µM

These molecules were tested on Rattus norvegicus (assay: Anti-inflammatory activity in Wistar rat assessed as inhibition of carrageenan-induced paw edema at 10 mg/kg, ip pretreated for 1 hr followed by carrageenan challenge and measured after 4 hr relative to indomethacin). Conditions: time 5 hrs.
Format: functional

Row | SMILES | inhibition in vivo at 10 mg/kg
8 | COc1cc(/C=C/C(=O)/C=C(O)/C=C/c2ccc(OC(=O)[C@@H](NC(=O)OC(C)(C)C)C(C)C)c(OC)c2)ccc1OC(=O)[C@@H](NC(=O)OC(C)(C)C)C(C)C | 49%

What follows are molecules tested on Rattus norvegicus (assay: Anti-inflammatory activity in Wistar rat assessed as inhibition of carrageenan-induced paw edema at 10 mg/kg, ip pretreated for 1 hr followed by carrageenan challenge and measured after 2 hr relative to control (reference value: 0.00 +/-0.03 %)). Conditions: time 3 hrs.
Format: functional

Row | SMILES | inhibition in vivo at 10 mg/kg
9 | COc1cc(/C=C/C(=O)/C=C(O)/C=C/c2ccc(OC(=O)[C@@H](NC(=O)OC(C)(C)C)C(C)C)c(OC)c2)ccc1OC(=O)[C@@H](NC(=O)OC(C)(C)C)C(C)C | 24%

The molecules below were run on Rattus norvegicus (assay: Anti-inflammatory activity in Wistar rat assessed as inhibition of carrageenan-induced paw edema at 10 mg/kg, ip pretreated for 1 hr followed by carrageenan challenge and measured after 3 hr relative to control (reference value: 0.00 +/-0.1 %)). Conditions: time 4 hrs.
Format: functional

Row | SMILES | inhibition in vivo at 10 mg/kg
10 | COc1cc(/C=C/C(=O)/C=C(O)/C=C/c2ccc(OC(=O)[C@@H](NC(=O)OC(C)(C)C)C(C)C)c(OC)c2)ccc1OC(=O)[C@@H](NC(=O)OC(C)(C)C)C(C)C | 25%

What follows are molecules tested on Rattus norvegicus (assay: Antiinflammatory activity in Wistar rat model of carrageenan-induced paw edema assessed as reduction in thickness of paw edema at 10 mg/kg, ip pretreated for 1 hr followed by carrageenan challenge and measured after 4 hrs (reference value: 1.40 +/-0.10 mm)). Conditions: time 5 hrs.
Format: functional

Row | SMILES | Activity
11 | COc1cc(/C=C/C(=O)/C=C(O)/C=C/c2ccc(OC(=O)[C@@H](NC(=O)OC(C)(C)C)C(C)C)c(OC)c2)ccc1OC(=O)[C@@H](NC(=O)OC(C)(C)C)C(C)C | 0.8 mm

What follows are molecules tested on Rattus norvegicus (assay: Antiinflammatory activity in Wistar rat model of carrageenan-induced paw edema assessed as reduction in thickness of paw edema at 10 mg/kg, ip pretreated for 1 hr followed by carrageenan challenge and measured after 1 hr (reference value: 2.41 +/-0.05 mm)). Conditions: time 1 hr after carrageenan.
Format: functional

Row | SMILES | Activity
12 | COc1cc(/C=C/C(=O)/C=C(O)/C=C/c2ccc(OC(=O)[C@@H](NC(=O)OC(C)(C)C)C(C)C)c(OC)c2)ccc1OC(=O)[C@@H](NC(=O)OC(C)(C)C)C(C)C | 2.09 mm

What follows are molecules tested on Peritoneal macrophage (assay: Antiinflammatory activity in […] mouse Peritoneal macrophages assessed as inhibition of LPS-induced NO production at 10 uM preincubated for 1 hr followed by LPS stimulation measured after 24 hrs by Griess method relative to control (reference value: 0.0 %)). Conditions: time 25 hrs.
Format: functional
Parameters: scale not given: the % may be the effect or the level left

Row | SMILES | Activity
13 | COc1cc(/C=C/C(=O)/C=C(O)/C=C/c2ccc(OC(=O)[C@@H](NC(=O)OC(C)(C)C)C(C)C)c(OC)c2)ccc1OC(=O)[C@@H](NC(=O)OC(C)(C)C)C(C)C | 29.35%

What follows are molecules tested on Pseudomonas aeruginosa (assay: Antibacterial activity against Pseudomonas aeruginosa ATCC 27853 incubated for 18 hrs by agar dilution assay). Conditions: not given.
Format: functional

Row | MIC | SMILES
14 | 2 µg/mL and 2.61 µM | COc1cc(/C=C/C(=O)/C=C(O)/C=C/c2ccc(OC(=O)[C@@H](NC(=O)OC(C)(C)C)C(C)C)c(OC)c2)ccc1OC(=O)[C@@H](NC(=O)OC(C)(C)C)C(C)C

What follows are molecules tested on Rattus norvegicus (assay: Anti-inflammatory activity in Wistar rat assessed as inhibition of carrageenan-induced paw edema at 10 mg/kg, ip pretreated for 1 hr followed by carrageenan challenge and measured after 4 hr relative to control (reference value: 0.00 +/-0.4 %)). Conditions: time 5 hrs.
Format: functional

Row | SMILES | inhibition in vivo at 10 mg/kg
15 | COc1cc(/C=C/C(=O)/C=C(O)/C=C/c2ccc(OC(=O)[C@@H](NC(=O)OC(C)(C)C)C(C)C)c(OC)c2)ccc1OC(=O)[C@@H](NC(=O)OC(C)(C)C)C(C)C | 43%

Each molecule was assayed on Splenocyte (assay: Immunomodulatory activity in Swiss albino mouse splenocytes assessed as cell viability at 10 uM by measuring inhibition of stimulation index incubated for 72 hrs in presence of mitogenic stimulus phytohaemagglutinin by MTT assay relative to indomethacin). Conditions: read-out: Activity.
Format: functional

Row | SMILES | viability at 10 µM
16 | COc1cc(/C=C/C(=O)/C=C(O)/C=C/c2ccc(OC(=O)[C@@H](NC(=O)OC(C)(C)C)C(C)C)c(OC)c2)ccc1OC(=O)[C@@H](NC(=O)OC(C)(C)C)C(C)C | 65.6%

Each molecule was assayed on Salmonella typhimurium (assay: Antibacterial activity against Salmonella typhimurium ATCC 19430 incubated for 18 hrs by agar dilution assay). Conditions: Salmonella enterica.
Format: functional, Salmonella enterica subsp. enterica serovar Typhimurium

Row | MIC | SMILES
17 | 0.25 µg/mL and 0.326 µM | COc1cc(/C=C/C(=O)/C=C(O)/C=C/c2ccc(OC(=O)[C@@H](NC(=O)OC(C)(C)C)C(C)C)c(OC)c2)ccc1OC(=O)[C@@H](NC(=O)OC(C)(C)C)C(C)C

What follows are molecules tested on Rattus norvegicus (assay: Antiinflammatory activity in Wistar rat model of carrageenan-induced paw edema assessed as reduction in thickness of paw edema at 10 mg/kg, ip pretreated for 1 hr followed by carrageenan challenge and measured after 2 hrs (reference value: 2.06 +/-0.09 mm)). Conditions: time 3 hrs.
Format: functional

Row | SMILES | Activity
18 | COc1cc(/C=C/C(=O)/C=C(O)/C=C/c2ccc(OC(=O)[C@@H](NC(=O)OC(C)(C)C)C(C)C)c(OC)c2)ccc1OC(=O)[C@@H](NC(=O)OC(C)(C)C)C(C)C | 1.57 mm

These molecules were tested on Rattus norvegicus (assay: Antiinflammatory activity in Wistar rat model of carrageenan-induced paw edema assessed as reduction in thickness of paw edema at 10 mg/kg, ip pretreated for 1 hr followed by carrageenan challenge and measured after 24 hrs (reference value: 0.83 +/-0.08 mm)). Conditions: time 25 hrs.
Format: functional

Row | SMILES | Activity
19 | COc1cc(/C=C/C(=O)/C=C(O)/C=C/c2ccc(OC(=O)[C@@H](NC(=O)OC(C)(C)C)C(C)C)c(OC)c2)ccc1OC(=O)[C@@H](NC(=O)OC(C)(C)C)C(C)C | 0.58 mm

The molecules below were run on Staphylococcus aureus (assay: Antibacterial activity against Staphylococcus aureus ATCC 25923 incubated for 18 hrs by agar dilution method). Conditions: not given.
Format: functional

Row | MIC | SMILES
20 | 0.25 µg/mL and 0.326 µM | COc1cc(/C=C/C(=O)/C=C(O)/C=C/c2ccc(OC(=O)[C@@H](NC(=O)OC(C)(C)C)C(C)C)c(OC)c2)ccc1OC(=O)[C@@H](NC(=O)OC(C)(C)C)C(C)C
